According to US5656288A, “Stable pharmaceutical compositions containing tiludronate hydrates and process for producing the pharmaceutical compositions” (Sanofi Winthrop, Inc., priority 1995, dated 1997):
Entries after “also recorded” stand apart in the source; their conditions may differ. Values belong to the compound of their own block, whether it stands above or below them.

How the values were obtained:
[1] = Hygroscopicity: water content by TGA after storage at defined relative humidity; format: physicochemical
Experimental: (§1) Samples of disodium tiludronate hemihydrate were stressed at humidity levels of 12-95% RH using different saturated salt solutions to obtain a range of relative humidity. The salt solutions used and the corresponding relative humidity are tabulated below:
(§2) The samples were held for 2 weeks at each humidity at 20° C. and analyzed by TGA for moisture content. The samples were also analyzed by FTIR to determine if spectroscopic changes were observed. Samples which increased in moisture content after 2 weeks were then moved to lower relative humidity to determine if the water uptake was reversible.
A sample of the monohydrate form was also stressed with respect to humidity. Samples were stressed at 58-95% RH at 20° C. for 2 weeks.
B) Thermal Gravimetric Analysis (TGA)
Thermal Gravimetric Analysis was performed on the Perkin Elmer TGA-7 system. Samples were weighed into a platinum pan and scanned at a rate of 5° C./min. under nitrogen purge gas.

[2] = Hysteresis / reversibility of water uptake on moving to lower relative humidity; format: physicochemical; settings: for stability / reversion at low relative humidity: moved to humidity as low as 31% RH after 75-95% RH
Experimental: as §2
Hysteresis data (samples stored at high humidity were moved from high to low humidity) for samples stressed at 75-95% RH is shown in FIG. 1b. […] If the moisture was hygroscopic in nature one would expect the moisture level to decrease as the humidity level is decreased.

[3] = Intrinsic dissolution rate in acetate buffer pH 4.8, 20° C.; format: physicochemical; settings: for intrinsic dissolution rate (average slope): acetate buffer pH 4.8, 20° C., 100 RPM, triplicate
Experimental: F) Intrinsic Dissolution Rate
The intrinsic dissolution rates of hemihydrate, the monohydrate form and tetrahydrate form were determined in acetate buffer (pH=4.8) at 20° C. A disk (0.5 cm^2) was compressed under the following conditions: 225-250 mg drug, 4000 lbs pressure, and 30 seconds compaction time. The disk was dissolved in a Vander Kamp VK 6000 dissolution bath in 250 ml solvent at 100 RPM. Samples were withdrawn at 2, 4, 6, 8, 10 and 15 minutes and diluted by a factor of 2 for UV analysis. Samples were analyzed at 264 nm with the Hewlett Packard 8451A diode array spectrophotometer. Intrinsic dissolution plots were generated by plotting concentration/area vs. time and determining the slope by linear regression. Each dissolution experiment was run in triplicate.

[4] = Crystal form change under humidity stress (FTIR, XRPD, TGA); format: physicochemical; settings: for changes by TGA / FTIR at low relative humidity: 12-58% RH, 2 weeks; for crystal form change (FTIR, TGA): 75-85% RH (75% and 84% RH samples); for crystal form change (FTIR, XRPD, TGA): 95% RH
Experimental: as §1, §2
C) Fourier Transform Infrared Spectroscopy (FTIR)
FTIR spectra were obtained on the Nicolet 730 system equipped with an MCT detector. Samples were run as KBr dispersions at approximately 1% concentration.
D) X-Ray Powder Diffraction (XRPD)
XRPD data was provided by Kodak Analytical Technology Division (Rochester, N.Y.) using a Rigaku RU 300 system at […].

[5] = Solubility in acetate buffer pH 4.8, 20° C.; format: physicochemical; settings: for solubility (concentration in acetate buffer): 30 min
Experimental: The solubility of unstressed hemihydrate, the monohydrate form and a sample which was equilibrated at 95% RH, i.e. tetrahydrate were compared in acetate buffer. A pH value of 4.8 was chosen. Approximately 250 mg of drug was added to 1 ml of solvent and agitated with a laboratory rotator at 20° C. The sample was filtered (0.45 micron) and diluted (200 ul to 25 ml). This solution was then diluted by a factor of 5 prior to UV analysis. Samples were analyzed at time points of 0.5, 3.0, and 24 hours with the Hewlett Packard 8451A diode array spectrophotometer. Absorbance was measured at 264 nm versus a standard prepared in acetate buffer. The solubility was determined (based on anhydrous drug) for two different samples (of each form) at each time point.

[6] = ambient temperature and humidity
[7] = listed as disodium tiludronate hemihydrate, hemihydrate

Compound: O=P(O)(O)C(Sc1ccc(Cl)cc1)P(=O)(O)O [Tiludronate, disodium 4-chlorophenylthiomethylenebisphosphonate]
moisture content as relative humidity is increased ([1]; increasing RH): does not increase in moisture content as relative humidity is increased until a relative humidity is reached where crystalline changes occur

stability / reversion at low relative humidity [2, 7]: did not revert at 31% RH
moisture level on moving stepwise to lower relative humidity (hysteresis) ([2]; samples stressed at 75-95% RH): not reversible
intrinsic dissolution rate (average slope) ([3]; hemihydrate): 0.0332 mg/(ml*cm^2 *min)
changes by TGA / FTIR at low relative humidity ([4]; hemihydrate): no changes in spectra
changes by TGA / FTIR at low relative humidity [4, 7]: no changes by TGA and FTIR
solubility at 0.5 h ([5]; acetate buffer, pH 4.8, aqueous buffer, pH 4.8, 20° C., 0.5 hours, based on anhydrous drug, read-out: solubility (concentration in acetate buffer)): 147 mg/mL
solubility at 24 hours relative to tetrahydrate ([5]; pH 4.8, 20° C., 24 hours): equivalent to the tetrahydrate
initial solubility relative to tetrahydrate ([5]; pH 4.8, 20° C., initial): higher than the tetrahydrate form
FTIR analysis of residual solid in solubility samples ([5]; pH 4.8, residual solid): conversion to the tetrahydrate
water content (TGA analysis) ([1]; 12-58% RH, 20° C., 2 weeks): approximately 5%
water content ([1]; 75% RH, 20° C., 2 weeks): 8.4%
water content ([1]; 84% RH, 20° C., 2 weeks): 13.7%
moisture level / total weight loss (TGA) ([1]; 95% RH, 20° C., 2 weeks): 16.4%
Compound: O=P(O)(O)C(Sc1ccc(Cl)cc1)P(=O)(O)O [hemihydrate, disodium 4-chlorophenylthiomethylenebisphosphonate hemihydrate]
FTIR analysis of the disk at the end of the dissolution experiment ([3]; hemihydrate): conversion to the tetrahydrate form was occurring
crystal form change (FTIR, TGA) ([4]; hemihydrate): partial change to monohydrate and tetrahydrate
crystal form change (FTIR, TGA) [4, 7]: partial transformation to the tetrahydrate form; also recorded: mixture of forms
crystal form change (FTIR, XRPD, TGA) ([4]; hemihydrate): conversion of the hemihydrate to the tetrahydrate form; also recorded: significant change in the FTIR spectra and X-ray pattern indicative of crystalline rearrangement
crystal form change (FTIR, XRPD, TGA) [4, 7]: crystalline changes accompany the increase in moisture content; also recorded: changed to a tetrahydrate form

intrinsic dissolution rate (average slope) ([3]; monohydrate): 0.0351 mg/(ml*cm^2 *min)
solubility (concentration in acetate buffer) ([5]; pH 4.8, 20° C., 0.5 hours, based on anhydrous drug, monohydrate): 175 mg/mL
Compound: O=P(O)(O)C(Sc1ccc(Cl)cc1)P(=O)(O)O [monohydrate, disodium 4-chlorophenylthiomethylene-bisphosphonate monohydrate]
FTIR analysis of the disk at the end of the dissolution experiment ([3]; monohydrate): did not show transformation to the tetrahydrate

intrinsic dissolution rate (average slope) [3]: 0.0359 mg/(ml*cm^2 *min)
crystal form change (FTIR, XRPD, TGA) [4]: little evidence of the monohydrate form
solubility (concentration in acetate buffer) ([5]; pH 4.8, 20° C., 0.5 hours, based on anhydrous drug): 140 mg/mL
Compound: O=P(O)(O)C(Sc1ccc(Cl)cc1)P(=O)(O)O [tetrahydrate, disodium 4-chlorophenylthiomethylenebisphosphonate]
stability / reversion at low relative humidity [2]: stability of the tetrahydrate form at humidity levels as low as 31% RH
conversion to monohydrate or hemihydrate [6]: not convened to either the monohydrate or hemihydrate form thereof at ambient temperature and humidity
